The first experiment concerns the target Btk enzyme (His-Btk) (Homo sapiens (Human), UniProt Q06187). The experiment can be described thus: Btk enzyme activity, IMAP fluorescence polarization assay (Assay Method A).
Conditions: not given
Sequence of Btk enzyme (His-Btk) (Q06187 whole entry): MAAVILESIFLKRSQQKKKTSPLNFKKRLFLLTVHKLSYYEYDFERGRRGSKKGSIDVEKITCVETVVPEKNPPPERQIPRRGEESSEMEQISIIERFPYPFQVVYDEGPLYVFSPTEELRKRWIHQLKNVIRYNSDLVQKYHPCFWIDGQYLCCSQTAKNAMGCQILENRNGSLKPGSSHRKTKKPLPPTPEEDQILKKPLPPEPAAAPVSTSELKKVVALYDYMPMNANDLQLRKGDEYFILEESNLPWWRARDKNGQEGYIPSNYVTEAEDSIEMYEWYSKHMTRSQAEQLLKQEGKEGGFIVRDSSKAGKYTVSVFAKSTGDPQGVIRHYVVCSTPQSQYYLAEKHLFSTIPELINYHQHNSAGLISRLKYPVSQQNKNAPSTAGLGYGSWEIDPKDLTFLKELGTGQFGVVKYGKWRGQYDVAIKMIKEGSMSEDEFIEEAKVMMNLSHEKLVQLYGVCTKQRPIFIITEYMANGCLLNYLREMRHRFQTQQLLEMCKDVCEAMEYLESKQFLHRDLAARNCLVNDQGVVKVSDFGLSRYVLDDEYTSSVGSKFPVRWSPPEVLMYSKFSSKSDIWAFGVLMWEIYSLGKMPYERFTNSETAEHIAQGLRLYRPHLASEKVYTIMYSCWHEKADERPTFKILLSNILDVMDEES
`CCC(F)(F)C(=O)N1CCC[C@@H](c2nc(-c3ccc(C(=O)Nc4ccccn4)cc3)c3c(N)nccn23)C1` [Example 93, (R)-4-(8-amino-3-(1-(2,2-difluorobutanoyl)piperidin-3-yl)imidazo[1,5-a]pyrazin-1-yl)-N-(pyridin-2-yl)benzamide]: the EC50 (commonly the concentration giving half of the maximal effect) lay within 10 to 100 nM. As for `Nc1nccn2c([C@@H]3CCCN(C(=O)C4(O)CC4)C3)nc(-c3ccc(C(=O)Nc4ccccn4)cc3)c12` [Example 94, (R)-4-(8-amino-3-(1-(1-hydroxycyclopropanecarbonyl)piperidin-3-yl)imidazo[1,5-a]pyrazin-1-yl)-N-(pyridin-2-yl)benzamide], the EC50 was in the range of 10 to 100 nM. Compound `Nc1nccn2c([C@@H]3CCCN(C=O)C3)nc(-c3ccc(C(=O)Nc4ccccn4)cc3)c12` [Example 95, (R)-4-(8-amino-3-(1-formylpiperidin-3-yl)imidazo[1,5-a]pyrazin-1-yl)-N-(pyridin-2-yl)benzamide] gave an EC50 of 10 to 100 nM.

Take `CCC(=O)N1CCC[C@@H](c2nc(-c3ccc(C(=O)Nc4cc(C#N)ccn4)cc3)c3c(N)nccn23)C1` [Example 96, (R)-4-(8-amino-3-(1-propionylpiperidin-3-yl)imidazo[1,5-a]pyrazin-1-yl)-N-(4-cyanopyridin-2-yl)benzamide]: the EC50 is under 10 nM. The same measure, in the same setting: next, `COCCC(=O)N1CCC[C@@H](c2nc(-c3ccc(C(=O)Nc4cc(C#N)ccn4)cc3)c3c(N)nccn23)C1` [Example 97, (R)-4-(8-amino-3-(1-(3-methoxypropanoyl)piperidin-3-yl)imidazo[1,5-a]pyrazin-1-yl)-N-(4-cyanopyridin-2-yl)benzamide]: under 10 nM; `N#Cc1ccnc(NC(=O)c2ccc(-c3nc([C@@H]4CCCN(C(=O)C5CC5)C4)n4ccnc(N)c34)cc2)c1` [Example 98, (R)-4-(8-amino-3-(1-(cyclopropanecarbonyl)piperidin-3-yl)imidazo[1,5-a]pyrazin-1 yl)-N-(4-cyanopyridin-2-yl)benzamide]: under 10 nM; `CC1(C(=O)N2CCC[C@@H](c3nc(-c4ccc(C(=O)Nc5cc(C#N)ccn5)cc4)c4c(N)nccn34)C2)COC1` [Example 99, (R)-4-(8-amino-3-(1-(3-methyloxetane-3 carbonyl)piperidin-3-yl)imidazo[1,5-a]pyrazin-1-yl)-N-(4-cyanopyridin-2-yl)benzamide]: under 10 nM. In turn, `Nc1nccn2c([C@@H]3CCCN(C(=O)C4CC4)C3)nc(-c3ccc(C(=O)Nc4cc(C(F)(F)F)ccn4)cc3)c12` [Example 103, (R)-4-(8-amino-3-(1-(cyclopropanecarbonyl)piperidin-3-yl)imidazo[1,5-a]pyrazin-1-(trifluoromethyl)pyridin-2-yl)benzamide] returned a 50% effective concentration (EC50) of under 10 nM. The compound `CC(C)(C#N)C(=O)N1CCC[C@@H](c2nc(-c3ccc(C(=O)Nc4ccccn4)cc3)c3c(N)nccn23)C1` [Example 108, (R)-4-(8-amino-3-(1-(2-cyano-2-methylpropanoyl)piperidin-3-yl)imidazo[1,5-a]pyrazin-1-yl)-N-(pyridin-2-yl)benzamide] yielded a half-maximal effective concentration (EC50) of 10 to 100 nM. Still for that read-out and setting: next, `CN(C)C(=O)C(=O)N1CCC[C@@H](c2nc(-c3ccc(C(=O)Nc4cc(C5CC5)ccn4)cc3)c3c(N)nccn23)C1` [Example 111, (R)-4-(8-amino-3-(1-(2-(dimethylamino)-2-oxoacetyl)piperidin-3-yl)imidazo[1,5-a]pyrazin-1-yl)-N-(4-cyclopropylpyridin-2-yl)benzamide]: 10 to 100 nM. On to `CC(C)CNC(=O)C(=O)N1CCC[C@@H](c2nc(-c3ccc(C(=O)Nc4cc(C5CC5)ccn4)cc3)c3c(N)nccn23)C1` [Example 112, (R)-4-(8-amino-3-(1-(2-(isobutylamino)-2-oxoacetyl)piperidin-3-yl)imidazo[1,5-a]pyrazin-1-yl)-N-(4-cyclopropylpyridin-2-yl)benzamide], for which the EC50 is 10 to 100 nM. Still for that read-out and setting: next, `Cc1ccc(NC(=O)C(=O)N2CCC[C@@H](c3nc(-c4ccc(C(=O)Nc5cc(C6CC6)ccn5)cc4)c4c(N)nccn34)C2)cc1C` [Example 113, (R)-4-(8-amino-3-(1-(2-(3,4-dimethylphenylamino)-2-oxoacetyl)piperidin-3 yl)imidazo[1,5-a]pyrazin-1-yl)-N-(4-cyclopropylpyridin-2-yl)benzamide]: 10 to 100 nM.

Still in this experiment, the particulars now being: read-out: EC50 Btk activity values - Assay Method A.
Turning to `Nc1nccn2c([C@@H]3CCCN(C(=O)OCc4ccccc4)C3)nc(-c3ccc(C(=O)Nc4cc(C(F)(F)F)ccn4)cc3)c12` [Example 107, (R)-benzyl 3-(8-amino-1-(4-(4-(trifluoromethyl)pyridin-2-ylcarbamoyl)phenyl)imidazo[1,5-a]pyrazin-3-yl)piperidine-1-carboxylate], the EC50 is under 10 nM.

Staying with this experiment, now noted: read-out: EC50 Btk activity values - Assay Method A; IMAP-FP, 60 min pre-incubation, 5 μM ATP; class 100-1000 is given as ≧100 nM-<1 μM.
For the compound `CC(C)C(=O)N1CCC[C@@H](c2nc(-c3ccc(C(=O)Nc4cc(C#N)ccn4)cc3)c3c(N)nccn23)C1` [Example 100, (R)-4-(8-amino-3-(1-isobutyrylpiperidin-3 yl)imidazo[1,5-a]pyrazin-1-yl)-N-(4-cyanopyridin-2-yl)benzamide], the EC50 is under 10 nM. On to `CCNC(=O)N1CCC[C@@H](c2nc(-c3ccc(C(=O)Nc4cc(C#N)ccn4)cc3)c3c(N)nccn23)C1` [Example 101, (R)-3-(8-amino-1-(4-(4-cyanopyridin-2-ylcarbamoyl)phenyl)imidazo [1,5-a]pyrazin-3-yl)-N-ethylpiperidine-1-carboxamide], for which the EC50 is under 10 nM. As for `CC(C)C(=O)N1CCC[C@@H](c2nc(-c3ccc(C(=O)Nc4cc(C(F)(F)F)ccn4)cc3)c3c(N)nccn23)C1` [Example 104, (R)-4-(8-amino-3-(1-isobutyrylpiperidin-3-yl)imidazo[1,5-a]pyrazin-1-yl)-N-(4-(trifluoromethyl)pyridin-2-yl)benzamide], the concentration for a half-maximal effect (EC50) was under 10 nM. The same measure, in the same setting: for `CC(CO)(CO)C(=O)N1CCC[C@@H](c2nc(-c3ccc(C(=O)Nc4cc(C(F)(F)F)ccn4)cc3)c3c(N)nccn23)C1` [Example 105, (R)-4-(8-amino-3-(1-(3-hydroxy-2-(hydroxymethyl)-2-methylpropanoyl)piperidin-3 yl)imidazo[1,5-a]pyrazin-1-yl)-N-(4-(trifluoromethyl)pyridin-2-yl)benzamide] the value was under 10 nM; for `Nc1nccn2c([C@@H]3CCCNC3)nc(-c3ccc(C(=O)Nc4cc(C(F)(F)F)ccn4)cc3)c12` [Example 106, (R)-4-(8-amino-3-(piperidin-3-yl)imidazo[1,5-a]pyrazin-1-yl)-N-(4-(trifluoromethyl)pyridin-2-yl)benzamide], under 10 nM; for `Nc1nccn2c([C@@H]3CCCN(C(=O)C4CC(F)(F)C4)C3)nc(-c3ccc(C(=O)Nc4cc(C5CC5)ccn4)cc3)c12` [Example 109, (R)-4-(8-amino-3-(1-(3,3-difluorocyclobutanecarbonyl)piperidin-3-yl)imidazo[1,5-a]pyrazin-1-yl)-N-(4-cyclopropylpyridin-2-yl)benzamide], under 10 nM. As to `Nc1nccn2c([C@@H]3CCCN(C(=O)CN4CCOC4=O)C3)nc(-c3ccc(C(=O)Nc4cc(C5CC5)ccn4)cc3)c12` [Example 110, (R)-4-(8-amino-3-(1-(2-(2-oxooxazolidin-3-yl)acetyl)piperidin-3-yl)imidazo[1,5-a]pyrazin-1-yl)-N-(4-cyclopropylpyridin-2-yl)benzamide], the concentration giving a half-maximal response (EC50) was under 10 nM.

For the origin of these results see US9718828B2 (MERCK SHARP & DOHME CORP., priority 2011, dated 2017).
